Source: patent publication US20260152494A1, “CDK2 INHIBITORS AND METHODS OF USING THE SAME” (Cedilla Therapeutics, Inc., priority 2022, published 2026)

Legend:
CDK2/Cyclin E1 [1] = molecular target: T1, CDK2/Cyclin E1 (Homo sapiens, UniProt P24941); experiment: ADPGLO (CDK2/E1-37C) ADP-Glo Luminescent Kinase Assay; format: biochemical; conditions: 0.18 nM CDK2/Cyclin E1, 100 μM ATP, 1.5 μM Histone H1, 37° C., 60 min preincubation
T1 construct: purchased Eurofins 14-475
Experimental: Example A2: ADPGLO (CDK2/E1-37C)
Inhibition of CDK2/Cyclin E1 activity by the presence of small molecules was evaluated using ADP-Glo Luminescent Kinase Assay (Promega). Activated CDK2/Cyclin E1 was incubated with its substrate Histone H1 (SignalChem H10-54N) in the kinase reaction buffer (100 μM ATP, 50 mM HEPES pH 7.5, 10 mM MgCl2, 1 mM EDTA, 2 mM DTT, 0.01% Brij35, 0.5 mg/mL BSA). Luminescence was recorded with an Envision plate reader (PerkinElmer).
Dose titrations of inhibitors in 100% DMSO were combined with 0.36 nM CDK2/Cyclin E1 in reaction buffer. The mixtures were incubated for 60 minutes at 37° C. before the addition of ATP and Histone H1 substrate to initiate the kinase reaction. The final conditions were 0.18 nM CDK2/Cyclin E1, 100 μM ATP, and 1.5 μM Histone H1. The reactions were incubated at 37° C. for 90 minutes before being stopped with the addition of ADP-Glo reagent. This mixture was incubated at room temperature for 60 minutes before Kinase Detection Solution is added to generate luminescence. The stopped reactions were analyzed on an Envision plate reader. The conversion ratios were normalized to yield % activity, plotted against compound concentration, and fit to a four-parameter equation to determine the IC50 for each compound.

[2] = test system: Kuramochi cells labeled with mApple-H2B; experiment: IncuCyte cell proliferation assay; format: cell-based; conditions: Kuramochi RB-WT cells, 72 hours, cell count normalized to DMSO
Experimental: Example A3: IncuCyte® Cell Proliferation Assay
IncuCyte® assay was used to measure the effect of disclosed compounds on cell proliferation. Fluorescent microscopy images of cells were taken immediately after compound treatment and 72 hours later. Image analysis software was used to obtain cell counts as a function of compound concentration. Kuramochi cells labeled with mApple-H2B were seeded on 384-well assay-ready plates. Plates were placed in an IncuCyte® (Sartorius) and scanned at 0 and 72 hours. IncuCyte® software was used to count the number of fluorescent nuclei in each well. The fold change in cell count from 0 to 72 hours in wells treated with increasing compounds concentrations (10 pts, 1/2 log dilution, 20 μM top concentration) was normalized to DMSO control wells. The normalized cell counts were fit with dose response curves and a GI50 was calculated.

CDK2/Cyclin E1 [3] = molecular target: T1, CDK2/Cyclin E1; experiment: CDK2/Cyclin E1 Caliper LabChip EZ Reader mobility shift assay; format: biochemical; conditions: 2.5 nM CDK2/Cyclin E1, 100 μM ATP, 1.5 μM fluorescent peptide, 30 min preincubation; read-out: Caliper Assay (CDK2/CCNE1): IC50
Experimental: Example A1: CDK2/Cyclin E1 Caliper Assay
Inhibition of CDK2/Cyclin E1 activity in the presence of compounds of the present disclosure was evaluated using a Caliper LabChip® EZ Reader mobility shift assay. In the assay, CDK2/Cyclin E1 (Eurofins, 14-475) catalyzed the phosphorylation of a fluorescently tagged peptide 5-FAM-QSPKKG-CONH2 (PerkinElmer, FL Peptide 18) which induced a difference in capillary electrophoresis mobility. The peptide substrate and product were measured, and the conversion ratio was used to determine the inhibition (as % activity and IC50 values) of CDK2/Cyclin E1. Reactions contained 50 mM HEPES pH 7.5, 10 mM MgCl2, 1 mM EDTA, 2 mM DTT, 0.01% Brij35, 0.5 mg/mL BSA, 0.1% DMSO, 2.5 nM CDK2/Cyclin E1, 100 μM ATP, and 1.5 μM fluorescent peptide substrate.
Dose titrations of inhibitors in 100% DMSO were combined with 3.25 nM CDK2/Cyclin E1 and 130 μM of ATP in reaction buffer. The mixtures were incubated for 30 minutes before the addition of fluorescent peptide substrate to initiate the kinase reaction. The final conditions were 2.5 nM CDK2/Cyclin E1, 100 μM ATP, and 1.5 μM fluorescent peptide. The reactions were stopped after 100 minutes with the addition of EDTA (400 mM final EDTA concentration). The stopped reactions were analyzed on a Caliper LabChip® EZ Reader II. The conversion ratios were normalized to yield % activity, plotted against compound concentration, and fit to a four-parameter equation to determine the IC50 for each compound.

| SMILES | IC50 (CDK2/Cyclin E1 [1]) [µM] | IC50 (CDK2/Cyclin E1 [3]) [µM] | IC50 [2] [µM] |
| --- | --- | --- | --- |
| C[C@@H](OCC1CCCCC1)[C@H](NC(=O)[C@@H]1CN(Cc2cnn(Cc3ccccc3)c2)C(=O)C12CN(C(=O)[C@H]1CC1(C)C)C2)C(=O)N1CCC(c2nccs2)CC1 [Compound I-5, (S)-6-((1-benzyl-1H-pyrazol-4-yl)methyl)-N-((2S,3R)-3-(cyclohexylmethoxy)-1-oxo-1-(4-(thiazol-2-yl)piperidin-1-yl)butan-2-yl)-2-((S)-2,2-dimethylcyclopropane-1-carbonyl)-5-oxo-2,6-diazaspiro[3.4]octane-8-carboxamide] | ≤ 0.5 |  | ≤ 0.5 |
| CC1(C)C[C@@H]1C(=O)N1CC2(C1)C(=O)N(Cc1cncs1)CC2c1nnc(C(F)(F)c2ccc(Cl)c(Cl)c2)o1 (stereo partly drawn) [Compound I-6, 8-(5-((3,4-dichlorophenyl)difluoromethyl)-1,3,4-oxadiazol-2-yl)-2-((S)-2,2-dimethylcyclopropane-1-carbonyl)-6-(thiazol-5-ylmethyl)-2,6-diazaspiro[3.4]octan-5-one] | > 100 | > 10 | > 20 |
| CC(=O)N[C@@H](C(=O)NC1CN(C(=O)c2cnn(Cc3ccccc3)c2)CC12CN(C(=O)[C@H]1CC1(C)C)C2)[C@H](C)OCC1CCCCC1 (stereo partly drawn) [Compound I-25, (2R,3S)-2-acetamido-N-(6-(1-benzyl-1H-pyrazole-4-carbonyl)-2-((S)-2,2-dimethylcyclopropane-1-carbonyl)-2,6-diazaspiro[3.4]octan-8-yl)-3-(cyclohexylmethoxy)butanamide] |  | 0.1 to 1 | > 20 |
| C[C@@H](OCC1CCCCC1)[C@H](NC(=O)C1CS(=O)(=O)CC12CN(C(=O)[C@H]1CC1(C)C)C2)C(=O)N1CCCCC1 (stereo partly drawn) [Compound I-26, N-((2S,3R)-3-(cyclohexylmethoxy)-1-oxo-1-(piperidin-1-yl)butan-2-yl)-2-((S)-2,2-dimethylcyclopropane-1-carbonyl)-6-thia-2-azaspiro[3.4]octane-8-carboxamide 6,6-dioxide] |  | > 10 | > 20 |
| CC1(C)C[C@@H]1C(=O)N1CC2(CN(C(=O)c3cncs3)CC2C#N)C1 (stereo partly drawn) [Compound I-27, 2-((S)-2,2-dimethylcyclopropane-1-carbonyl)-6-(thiazole-5-carbonyl)-2,6-diazaspiro[3.4]octane-8-carbonitrile] |  | > 10 | > 20 |
| CCOC(=O)[C@@H]1CN(C(C)=O)CC12CN(C(C)=O)C2 [Compound I-28, ethyl (S)-2,6-diacetyl-2,6-diazaspiro[3.4]octane-8-carboxylate] |  | > 10 | > 20 |
| CNC(=O)[C@@H](NC(=O)[C@@H]1CN(C(=O)c2cnn(Cc3ccccc3)c2)CC12CN(C(=O)N(C)C1CC1)C2)[C@@H](C)OCC1CCCCC1 [Compound I-30, (S)-6-(1-benzyl-1H-pyrazole-4-carbonyl)-N8-((2S,3R)-3-(cyclohexylmethoxy)-1-(methylamino)-1-oxobutan-2-yl)-N2-cyclopropyl-N2-methyl-2,6-diazaspiro[3.4]octane-2,8-dicarboxamide] |  | 0.1 to 1 | > 20 |
| C[C@@H](OCC1CCCCC1)[C@H](NC(=O)[C@@H]1CNCC12CN(C(=O)[C@H]1CC1(C)C)C2)C(=O)N1CCOCC1 [Compound I-32, (S)—N-((2S,3R)-3-(cyclohexylmethoxy)-1-morpholino-1-oxobutan-2-yl)-2-((S)-2,2-dimethylcyclopropane-1-carbonyl)-2,6-diazaspiro[3.4]octane-8-carboxamide] |  | > 10 | > 20 |

More lines, main results first:

| IC50 (CDK2/Cyclin E1 [1]) [µM] | IC50 (CDK2/Cyclin E1 [3]) [µM] | SMILES | IC50 [2] [µM] |
| --- | --- | --- | --- |
| > 10 |  | C[C@@H](OCC1CCCCC1)[C@H](NC(=O)[C@H]1CN(C(=O)c2cncs2)CC12CCOCC2)C(=O)N1CCC(c2ccc(C(=O)O)cc2)CC1 (single isomer, unassigned) [I-4 1st, 4-(1-(O-(cyclohexylmethyl)-N-(2-(thiazole-5-carbonyl)-8-oxa-2-azaspiro[4.5]decane-4-carbonyl)-L-threonyl)piperidin-4-yl)benzoic acid] | > 20 |
| > 10 |  | C[C@@H](OCC1CCCCC1)[C@H](NC(=O)[C@@H]1CN(C(=O)c2cncs2)CC12CCOCC2)C(=O)N1CCC(c2ccc(C(=O)O)cc2)CC1 (single isomer, unassigned) [I-4 2nd, 4-(1-(O-(cyclohexylmethyl)-N-(2-(thiazole-5-carbonyl)-8-oxa-2-azaspiro[4.5]decane-4-carbonyl)-L-threonyl)piperidin-4-yl)benzoic acid] | > 20 |
|  | 1 to 10 | C[C@@H](OCC1CCCCC1)[C@H](NC(=O)[C@@H]1CN(C(=O)OC(C)(C)C)CC12CN(C(=O)[C@H]1CC1(C)C)C2)C(=O)N1CCOCC1 [Compound I-33] | > 20 |
|  | > 10 | CC(=O)N1C[C@@H](C(=O)N[C@H](C(=O)N2CCOCC2)[C@@H](C)OCC2CCCCC2)C2(C1)CN(C(=O)[C@H]1CC1(C)C)C2 [Compound I-36, (S)-6-acetyl-N-((2S,3R)-3-(cyclohexylmethoxy)-1-morpholino-1-oxobutan-2-yl)-2-((S)-2,2-dimethylcyclopropane-1-carbonyl)-2,6-diazaspiro[3.4]octane-8-carboxamide] | > 20 |
|  | > 10 | C[C@@H](OCC1CCCCC1)[C@H](NC(=O)[C@@H]1CNCC12CN(C(=O)[C@H]1CC1(C)C)C2)C(=O)N1CCCCC1 [Compound I-37, (S)—N-((2S,3R)-3-(cyclohexylmethoxy)-1-oxo-1-(piperidin-1-yl)butan-2-yl)-2-((S)-2,2-dimethylcyclopropane-1-carbonyl)-2,6-diazaspiro[3.4]octane-8-carboxamide] | > 20 |
|  | 1 to 10 | C[C@@H](OCC1CCCCC1)[C@H](NC(=O)[C@@H]1CN(C(=O)OC(C)(C)C)CC12CN(C(=O)[C@H]1CC1(C)C)C2)C(=O)N1CCCCC1 [Compound I-38] | > 20 |
|  | > 10 | CNC(=O)[C@@H](NC(=O)[C@@H]1CN(C(C)=O)CC12CN(C(=O)[C@H]1CC1(C)C)C2)[C@@H](C)OCC1CCCCC1 [Compound I-39] | > 20 |
| ≤ 0.5 |  | C[C@@H](OCC1CCCCC1)[C@H](NC(=O)C1CN(C(=O)c2cncs2)CC12CCN(C(=O)[C@H]1CC1(C)C)CC2)C(=O)N1CCC(c2ccc(C(=O)O)cc2)CC1 (stereo partly drawn) [Compound I-41, 4-(1-(O-(cyclohexylmethyl)-N-(8-((S)-2,2-dimethylcyclopropane-1-carbonyl)-2-(thiazole-5-carbonyl)-2,8-diazaspiro[4.5]decane-4-carbonyl)-L-threonyl)piperidin-4-yl)benzoic acid] | > 20 |
